The term microsomal CLint denotes a measure of how fast metabolising enzymes remove a compound, apart from limits set by blood flow.

Data on one compound can be found in paper PMC5823845 (Bioorganic & Medicinal Chemistry, 2018).

The data set can be described thus: Intrinsic clearance in liver microsomes. The following applies: liver microsomes, 37 °C, NADPH, 45 min, mean of 5. It counts as in vitro ADME. The procedure:
The reaction is terminated by the addition of methanol. Following centrifugation, the supernatant is analyzed on the LC-MS/MS. […] The data is the mean on 5 separate experiments.
The ln peak area ratio (compound peak area/internal standard peak area) is plotted against time and the gradient of the line determined.
(see Supplementary data file for details).
A general note: Liver microsomes are vesicles of endoplasmic reticulum, rich in cytochrome P450 enzymes.

Consider `CCOc1c(Cl)cc(C(=O)Nc2ccc(C(=O)O)c(C)c2)cc1OC(C)C` [Compound 56, 4-(3-Chloro-4-ethoxy-5-isopropoxybenzamido)-2-methylbenzoic acid], for which the microsomal CLint reads like this: (human microsomes) 5.3 µL/min/mg; (mouse microsomes) 37.6 µL/min/mg.
